# Experimental data taken from patent publication US6737383B1, “Herbicidal oxadiazolidines” (priority 1999, dated 2004).
# Experiments:
# smallflower flatsedge = assay: Test B flood test smallflower flatsedge; format: in vivo, Cyperus difformis
# In short: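 Plants were grown to the 2-leaf stage before treatment with test chemical, then held in a greenhouse for twelve to sixteen days. Injury was visually rated against untreated controls on a 0–10 scale, where 0 is no effect and 10 is complete control.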
# blackgrass [1] = assay: Test E blackgrass; format: in vivo, Alopecurus myosuroides; details: Preemergence; for Plant response rating, Blackgrass: 0 to 100 scale where 0 is no effect and 100 is complete control
# winter wheat [2] = assay: Test E winter wheat; format: in vivo, Triticum aestivum; details: Postemergence; for Plant response rating, Wheat (winter): 0 to 100 scale
# In short: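 Plants were grown under normal greenhouse practice; for postemergence, in sandy loam soil mixed 60:40 with potting mix, treated at the 1- to 4-leaf stage. The compound was in a non-phytotoxic solvent carrying a surfactant. After roughly 21 to 28 days plants were scored visually against untreated plants.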
# winter wheat [3] = assay: Test E winter wheat; format: in vivo, Triticum aestivum; details: Preemergence; for Plant response rating, Wheat (winter): 0 to 100 scale where 0 is no effect and 100 is complete control
# surinam grass = assay: Test B pre/postemergence surinam grass; format: in vivo, Brachiaria decumbens
# In short: (§1)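 Test chemicals in a non-phytotoxic solvent mixture with surfactant were sprayed preemergence onto planted seeds and postemergence onto plants 2 to 18 cm tall (1- to 4-leaf stage). After twelve to sixteen days in a greenhouse, injury was visually rated against untreated controls from 0 (no effect) to 10 (complete control).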
# wild oat = assay: Test E wild oat; format: in vivo, Avena fatua; details: Preemergence; for Plant response rating, Wild oat: 0 to 100 scale where 0 is no effect and 100 is complete control
# green foxtail = assay: Test E green foxtail; format: in vivo, Setaria viridis; details: Preemergence; for Plant response rating, Green foxtail: 0 to 100 scale where 0 is no effect and 100 is complete control
# Italian ryegrass = assay: Test E Italian ryegrass; format: in vivo, Lolium multiflorum; details: Preemergence; for Plant response rating, I. Ryegrass: 0 to 100 scale where 0 is no effect and 100 is complete control
# blackgrass [4] = assay: Test B pre/postemergence blackgrass; format: in vivo, Alopecurus myosuroides
# In short: as §1
# bedstraw = assay: Test B pre/postemergence bedstraw; format: in vivo, Galium aparine
# In short: as §1
# winter barley = assay: Test E winter barley; format: in vivo, Hordeum vulgare; details: Preemergence; for Plant response rating, Barley (winter): 0 to 100 scale where 0 is no effect and 100 is complete control
# [5] = Postemergence, Rate 125 g/ha, scale of 0 to 10 where 0 is no effect and 10 is complete control
# [6] = Preemergence, Rate 62 g/ha, scale of 0 to 10 where 0 is no effect and 10 is complete control
# [7] = Preemergence, Rate 125 g/ha, 0 is no effect, 10 is complete control
# [8] = Preemergence, Rate 250 g/ha, scale 0 to 10, 0 is no effect, 10 is complete control
# [9] = Preemergence, Rate 500 g/ha, scale 0 to 10 (0 no effect, 10 complete control)
# [10] = Rate 62 g/ha, Postemergence, scale of 0 to 10 where 0 is no effect and 10 is complete control
# [11] = Rate 250 g/ha, Postemergence, scale 0 to 10, 0 is no effect, 10 is complete control
compound,measurement,setting,value
CC(C)Cn1c(=O)on(C(=O)N(c2ccc(F)cc2)C(C)C)c1=O [Compound 169],S. Flatsedge plant response rating,"smallflower flatsedge; Postemergence (flood test species), Rate 125 g/ha, scale of 0 to 10 where 0 is no effect and 10 is complete control",0
same,S. Flatsedge plant response rating,"smallflower flatsedge; Rate 62 g/ha, Postemergence section, flood test species, scale of 0 to 10 where 0 is no effect and 10 is complete control",0
same,"Plant response rating, S. Flatsedge","smallflower flatsedge; Rate 250 g/ha, Postemergence (flood test), scale 0 to 10, 0 is no effect, 10 is complete control",0
same,S. Flatsedge plant response rating,"smallflower flatsedge; Rate 500 g/ha, listed under Postemergence (flood test species), scale 0 to 10",0
same,Blackgrass plant response rating (0 to 100 scale),blackgrass [1]; Rate 250 g/ha,30
same,"Plant response rating, Blackgrass",blackgrass [1]; Rate 500 g/ha,60
same,"Plant response rating, Blackgrass",blackgrass [1]; Rate 1000 g/ha,55
same,"Plant response rating, Wheat (winter)","winter wheat [2]; Rate 1000 g/ha, 0 is no effect and 100 is complete control",65
same,Wheat (winter) plant response rating,"winter wheat [2]; Rate 250 g/ha, 0 to 100 scale where 0 is no effect and 100 is complete control",40
same,"Plant response rating, Wheat (winter)","winter wheat [2]; Rate 500 g/ha, 0 is no effect, 100 is complete control",50
same,Wheat (winter) plant response rating (0 to 100 scale),winter wheat [3]; Rate 250 g/ha,10
same,"Plant response rating, Wheat (winter)",winter wheat [3]; Rate 500 g/ha,40
same,"Plant response rating, Wheat (winter)",winter wheat [3]; Rate 1000 g/ha,65
same,B. signalgrass plant response rating,surinam grass; [5],0
same,B. signalgrass plant response rating,surinam grass; [6],7
same,B. signalgrass plant response rating (0 to 10 scale),surinam grass; [7],7
same,B. signalgrass plant response rating,surinam grass; [8],7
same,B. signalgrass plant response rating,surinam grass; [9],7
same,B. signalgrass plant response rating,surinam grass; [10],0
same,"Plant response rating, B. signalgrass",surinam grass; [11],0
same,B. signalgrass plant response rating,"surinam grass; Rate 500 g/ha, Postemergence, scale 0 to 10, 0 no effect, 10 complete control",7
same,Wild oat plant response rating (0 to 100 scale),wild oat; Rate 250 g/ha,50
same,"Plant response rating, Wild oat",wild oat; Rate 500 g/ha,30
same,"Plant response rating, Wild oat",wild oat; Rate 1000 g/ha,40
same,Green foxtail plant response rating (0 to 100 scale),green foxtail; Rate 250 g/ha,60
same,"Plant response rating, Green foxtail",green foxtail; Rate 500 g/ha,70
same,"Plant response rating, Green foxtail",green foxtail; Rate 1000 g/ha,95
same,I. Ryegrass plant response rating (0 to 100 scale),Italian ryegrass; Rate 250 g/ha,75
same,"Plant response rating, I. Ryegrass",Italian ryegrass; Rate 500 g/ha,80
same,"Plant response rating, I. Ryegrass",Italian ryegrass; Rate 1000 g/ha,90
same,Blackgrass plant response rating,blackgrass [4]; [5],4
same,Blackgrass plant response rating,blackgrass [4]; [6],3
same,Blackgrass plant response rating (0 to 10 scale),blackgrass [4]; [7],3
same,Blackgrass plant response rating,blackgrass [4]; [8],8
same,Blackgrass plant response rating,blackgrass [4]; [9],10
same,Blackgrass plant response rating,blackgrass [4]; [10],2
same,"Plant response rating, Blackgrass",blackgrass [4]; [11],5
same,Blackgrass plant response rating,"blackgrass [4]; Rate 500 g/ha, Postemergence, scale 0 to 10",9
same,Bedstraw plant response rating,bedstraw; [5],2
same,Bedstraw plant response rating,bedstraw; [6],0
same,Bedstraw plant response rating (0 to 10 scale),bedstraw; [7],0
same,Bedstraw plant response rating,bedstraw; [8],7
same,Bedstraw plant response rating,bedstraw; [9],10
same,Bedstraw plant response rating,bedstraw; [10],2
same,"Plant response rating, Bedstraw",bedstraw; [11],7
same,Barley (winter) plant response rating (0 to 100 scale),winter barley; Rate 250 g/ha,30
same,"Plant response rating, Barley (winter)",winter barley; Rate 500 g/ha,30
same,"Plant response rating, Barley (winter)",winter barley; Rate 1000 g/ha,50
